Assay results from publication PMC10384862, “[^212Pb]Pb-eSOMA-01: A Promising Radioligand for Targeted Alpha Therapy of Neuroendocrine Tumors” (Pharmaceuticals, 2023).
Read-outs that look alike come from different tables or passages of the source.

Columns and labels:
[1] = Ex vivo biodistribution with lead-203; assay type: in vivo, mouse; conditions: mouse, 24 h post-injection
Procedure: (§1) Six-week-old male Balb/c nu/nu-specific and opportunistic pathogen-tree (SOPF) mice (Janvier Labs, Le Genest-Saint-Isle, France) were housed in individually ventilated cages, with four mice per cage. Upon arrival, the mice were acclimated for 1 week with access to food and water ad libitum. Mice were subcutaneously inoculated on the right shoulder with NCI-H69 cells (5 × 10^6 cells suspended in 100 μL of 1/3 Matrigel (Corning Inc.; Corning, NY, USA) and 2/3 Hank’s balanced salt solution (Gibco; Paisley, UK). NCI-H69 xenografts were allowed to grow for 3 weeks. Tumor sizes were 391 ± 173 mm^3 at the start of the studies.
(§2) To determine the biodistribution of the compounds after imaging (1, 4, and 24 h p.i.), blood was collected via retro-orbital puncture under isoflurane/O2 anesthesia, after which the mice were sacrificed via cervical dislocation. The tumor and organs of interest (heart, lungs, liver, spleen, stomach, large intestine, small intestine, pancreas, kidneys, muscle, skin, and bone) were excised, washed in PBS, blotted dry, and collected into tubes. The blood, tumor, and relevant organs were weighed and measured with a gamma counter. The percentage of injected dose per gram (% ID/g) was determined for each tissue sample and corrected for both the injected volume and the % ID present at the injection site (the tail).

[2] = SPECT/CT imaging with 203Pb-labeled ligands; assay type: in vivo; conditions: mouse; for tissue uptake per volume / tissue uptake per volume at 1 h / tissue uptake per volume at 24 h: male, Balb/c nu/nu, tumor, iv, 0.5 nmol, total radioactivity, read-out: Tumor uptake from SPECT images; for tissue uptake per volume: 1, 4 and 24 h after administration, n = 4; for tissue uptake per volume at 1 h: 1 h post-injection; for tissue uptake per volume at 24 h: 24 h post-injection; for half-life: kidneys, intravenous, ^203Pb-labeled, H69 tumor-bearing mice, read-out: Renal clearance half-life (converted)
Procedure: SPECT/CT imaging was performed in H69-xenografted Balb/c nu/nu mice at 1, 4, and 24 h after the administration of [^203Pb]Pb-eSOMA-01 or [^203Pb]Pb-eSOMA-02. Tumors were visible by SPECT/CT for both radioligands (Figure 3A,B). […] They increased over time for [^203Pb]Pb-eSOMA-01 (0.5 ± 0.03 at 4 h to 0.70 ± 0.11 at 24 h), while they remained nearly constant for [^203Pb]Pb-eSOMA-02 (0.30 ± 0.09 at 4 h and 0.4 ± 0.03 at 24 h).
as §1
Mice (n = 4 per compound) were intravenously injected in the tail vein with 100 μL of [^203Pb]Pb-eSOMA-01 (12.31 ± 1.44 MBq, 0.5 nmol) or [^203Pb]Pb-eSOMA-02 (13.06 ± 1.44 MBq, 0.5 nmol) containing Kolliphor HS 15 (Merck; Haarlerbergweg, The Netherlands) in PBS (0.06 mg/mL). At 1, 4, and 24 h post-injection (p.i.), mice were imaged in a prone position on a heated bed under 2% isoflurane/O2 anesthesia in a dedicated small-animal PET/SPECT/CT VECTOR5 scanner (MILabs B.V.; Utrecht, The Netherlands) with a high-sensitivity pinhole collimator (HE-GP-M, 1.6 mm pinholes). Whole-body SPECT images were acquired over one frame of 20 min (for 1 and 4 h time points) and two frames of 20 min (for 24 h time points) using a spiral scan in normal scan mode, in list-mode acquisition. This was followed by a whole-body normal CT scan (angle step 0.75 degrees, 50 kV tube voltage, 0.21 mA tube current). Reconstruction of the SPECT images was performed using the similarity-regulated SROSEM method (MILabs Rec 11.00 software), performing five iterations with a voxel size of 0.4 mm, using 72 keV ± 30% and 280 keV ± 8% energy windows for lead-203. Reconstructed volumes of SPECT scans were post-filtered with an isotropic three-dimensional Gaussian filter of 1 mm full width at half-maximum. Image processing and analyses of the reconstructed data were performed using the PMOD image analysis software version 3.9 (PMOD Technologies; Zurich, Switzerland) to calculate the percentage of injected dose per mL (% ID/mL). An Eppendorf tube filled with a solution of lead-203 of known activity was measured to determine the calibration factor.

[3] = LogD7.4 by shake-flask method (n-octanol/PBS); assay type: physicochemical; conditions: ^203Pb-labeled compound; n-octanol/PBS pH 7.4; n = 3
Procedure: Distribution coefficients (LogD7.4) were determined by the shake-flask method. A sample containing the ^203Pb-labeled compound (~1 MBq) was added to a vial containing PBS (600 µL, pH 7.4) and n-octanol (600 µL). The vial was vortexed vigorously and then centrifuged at 10,000 rpm for 10 min for phase separation. Samples (100 µL) of the n-octanol and aqueous phases were taken and measured by a gamma counter. The LogD7.4 value was calculated by using the equation: LogD7.4 = log [(counts in the n-octanol phase)/(counts in the aqueous phase)]. Measurements were performed in triplicate.

[4] = In vitro stability in PBS; assay type: physicochemical; conditions: phosphate buffered saline, pH 7.4; ^203Pb-labeled; 24 h; 37 °C; n = 1; read-out: Stability in PBS, intact labeled ligand
Procedure: The ^203Pb-labeled compounds (~ 2 MBq) or the ^212Pb-labeled compounds (~ 70 kBq) were incubated in 300 µL of phosphate buffered saline (PBS; 0.1 M, pH 7.4) or mouse serum at 37 °C. The stability of the radiolabeled peptides was monitored at 1, 4, and 24 h post-incubation. The samples in PBS were directly analyzed by radio-HPLC without any pretreatment. However, samples of mouse serum were mixed with an equal volume of acetonitrile to precipitate the proteins. The solution was centrifuged twice for 5 min at 13,000 rpm, and the supernatant was analyzed by radio-HPLC using Method 1 for lead-203 and Method 2 for lead-212.

[5] = tested on: AR42J tumors; conditions: in vivo, cited from earlier work
[6] = tested on: H69 tumor bearing mice; assay: Ex vivo biodistribution with lead-203; assay type: in vivo, mouse; conditions: after 4 h (so in the source); p < 0.05
Procedure: as §1, §2

[7] = blood, n = 4, read-out: Blood uptake
[8] = bone, n = 4, read-out: Bones uptake
[9] = heart, n = 4, read-out: Heart uptake
[10] = kidneys, n = 4, read-out: Kidneys uptake
[11] = large intestine, n = 4, read-out: Large Intestine uptake
[12] = liver, n = 4, read-out: Liver uptake
[13] = lungs, n = 4, read-out: Lungs uptake
[14] = muscle, n = 4, read-out: Muscle uptake
[15] = non-target organs other than kidneys, intravenous, organs other than kidneys, read-out: Uptakes in all the other non-target organs
[16] = pancreas, n = 4, read-out: Pancreas uptake
[17] = skin, n = 4, read-out: Skin uptake
[18] = small intestine, n = 4, read-out: Small Intestine uptake
[19] = spleen, n = 4, read-out: Spleen uptake
[20] = stomach, n = 4, read-out: Stomach uptake
[21] = tumor, n = 4, read-out: Tumor uptake

Row | Structure (SMILES) | tissue uptake at 24 h [1, 7] [%ID/g] | tissue uptake at 24 h [1, 8] [%ID/g] | tissue uptake at 24 h [1, 9] [%ID/g] | tissue uptake at 24 h [1, 10] [%ID/g] | tissue uptake at 24 h [1, 11] [%ID/g] | tissue uptake at 24 h [1, 12] [%ID/g] | tissue uptake at 24 h [1, 13] [%ID/g] | tissue uptake at 24 h [1, 14] [%ID/g] | tissue uptake at 24 h [1, 15] [%ID/g] | tissue uptake at 24 h [1, 16] [%ID/g] | tissue uptake at 24 h [1, 17] [%ID/g] | tissue uptake at 24 h [1, 18] [%ID/g] | tissue uptake at 24 h [1, 19] [%ID/g] | tissue uptake at 24 h [1, 20] [%ID/g] | tissue uptake at 24 h [1, 21] [%ID/g] | tissue uptake per volume [2] [%ID/mL] | tissue uptake per volume at 1 h [2] [%ID/mL] | tissue uptake per volume at 24 h [2] [%ID/mL] | logD [3] | remaining at 24 h [4] [%] | further results
1 | C[C@@H](O)[C@H](NC(=O)[C@@H]1CSSC[C@H](NC(=O)[C@@H](Cc2ccccc2)NC(=O)[C@H]2CC[C@H](CNC(=O)CN3CCN(CC(N)=O)CCN(CC(N)=O)CCN(CC(N)=O)CC3)CC2)C(=O)N[C@@H](Cc2ccc(O)cc2)C(=O)N[C@H](Cc2c[nH]c3ccccc23)C(=O)N[C@@H](CCCCN)C(=O)N[C@@H]([C@@H](C)O)C(=O)N1)C(=O)O [[^203Pb]Pb-eSOMA-01, metal not drawn] | 0.05 ± 0.02 | 0.27 ± 0.02 | 0.05 ± 0.01 | 7.44 ± 1.17 | 0.34 ± 0.08 | 0.86 ± 0.1 | 0.36 ± 0.05 | 0.18 ± 0.03 | < 1 | 0.12 ± 0.02 | 0.03 ± 0.02 | 0.12 ± 0.02 | 0.22 ± 0.03 | 0.75 ± 0.34 | 2.89 ± 0.84 | 3 to 4 | ~4 | 2 to 3 | -1.99 ± 0.03 | > 97 | half-life [2]: 14.7 ± 2.4 h
2 | C[C@@H](O)[C@H](NC(=O)[C@@H]1CSSC[C@H](NC(=O)[C@@H](Cc2ccccc2)NC(=O)CN2CCN(CC(N)=O)CCN(CC(N)=O)CCN(CC(N)=O)CC2)C(=O)N[C@@H](Cc2ccc(O)cc2)C(=O)N[C@H](Cc2c[nH]c3ccccc23)C(=O)N[C@@H](CCCCN)C(=O)N[C@@H]([C@@H](C)O)C(=O)N1)C(=O)O [[^203Pb]Pb-DOTAM-TATE, metal not drawn, reference compound] | – | – | – | – | – | – | – | – | – | – | – | – | – | – | – | – | – | – | -1.41 ± 0.01 | > 97 | Tumor uptake ([5]; 1 h): 13 % ID/g; Uptake in kidneys ([5]; 24 h): ~ 13 % ID/g
3 | C[C@@H](O)[C@H](NC(=O)[C@@H]1CSSC[C@H](NC(=O)[C@@H](Cc2ccccc2)NC(=O)CN2CCC(NC(=O)CN3CCN(CC(N)=O)CCN(CC(N)=O)CCN(CC(N)=O)CC3)CC2)C(=O)N[C@@H](Cc2ccc(O)cc2)C(=O)N[C@H](Cc2c[nH]c3ccccc23)C(=O)N[C@@H](CCCCN)C(=O)N[C@@H]([C@@H](C)O)C(=O)N1)C(=O)O [[^203Pb]Pb-eSOMA-02, metal not drawn] | 0.17 ± 0.11 | 0.67 ± 0.04 | 0.09 ± 0.02 | 12.6 ± 0.02 | 0.41 ± 0.06 | 1.11 ± 0.05 | 0.53 ± 0.04 | 0.04 ± 0.07 | < 1 | 0.83 ± 0.96 | 0.43 ± 0.09 | 0.24 ± 0.03 | 0.61 ± 0.15 | 0.67 ± 0.19 | 2.54 ± 0.36 | 3 to 4 | ~4 | 2 to 3 | -1.88 ± 0.03 | > 97 | More uptake in the kidneys compared to [203Pb]Pb-eSOMA-01 [6]: around 41%; half-life [2]: 24.2 ± 4.5 h
